The values that follow come from article PMC12362783 (Advanced Science, 2025).

Assay [1] has as its target PARP1 (Homo sapiens, UniProt P09874). Description: PARP enzymatic inhibition ELISA (PARP1). Type of assay: biochemical. The note with it: for IC50: n = 3, mean ± SD. The procedure:
The PARP activity assay was performed by ChemPartner (Shanghai, China). Each well was precoated with histone (final conc.: 100 ng mL^−1) diluted in PBS buffer (contains 10 mmol L^−1 NaH2PO4 and 150 mmol L^−1 NaCl, pH 7.4) by incubation at 4 °C overnight. […] The reaction was initiated by the addition of 10 µL of PARP (final conc.: 0.007 nM/well) at room temperature for 60 min. Add 20 µL of anti‐Poly/Mono‐ADP Ribose Rabbit mAb. Incubate for 1.5 h at room temperature and wash the plate three times using PBST buffer. […] Incubate for 1 h at room temperature and wash the plate three times using PBST buffer. Add 25 µL Femto‐ECL Substrate A and Femto‐ECL Substrate B (1:1) mix. Immediately read chemiluminescence on Envision (Revvity, USA).
A general note: ELISA stands for enzyme-linked immunosorbent assay.

Assay [2] addresses T1, ATR (Homo sapiens, UniProt Q13535).
T1 construct: purchased Eurofins 14-953
Description: ATR kinase inhibition, Mobility Shift Assay. Type of assay: biochemical. The note with it: n = 3, mean ± SD. The procedure:
The in vitro ATR kinase inhibitory activities were determined by ChemPartner Co., Ltd. (Shanghai, China) using the Mobility Shift Assay. The tested compound was dissolved with DMSO and diluted to 1000/3 × of the final desired highest inhibitor concentration in the reaction. […] The assay wells were incubated at 28 °C for 4 h.

The subject of assay [3] is MDA‐MB‐468. Description: Cell growth inhibition, CellTiter‐Glo (CTG). The format is cell-based. To be noted: Homo sapiens, MDA-MB-468, 120 h; CTG, 5 days, n = 3. As to the method:
(§1) All cells were grown in a humidified incubator at 37 °C and 5% CO2.
(§2) […] […] Relative viability was calculated by normalizing the raw luminescence counts of the treated groups to those of the DMSO control groups. IC₅₀ values were calculated using sigmoidal dose‐response curve fitting with GraphPad Prism 9.0 software.

Assay [4] concerns MDA‐MB‐231. Description: Cell growth inhibition, CellTiter‐Glo (CTG). The note with it: Homo sapiens, MDA-MB-231, 120 h, read-out: IC50 MDA‐MB‐231; CTG, 5 days, n = 3. The format is cell-based. The procedure: as §1, §2

T1 sequence (Q13535 whole entry): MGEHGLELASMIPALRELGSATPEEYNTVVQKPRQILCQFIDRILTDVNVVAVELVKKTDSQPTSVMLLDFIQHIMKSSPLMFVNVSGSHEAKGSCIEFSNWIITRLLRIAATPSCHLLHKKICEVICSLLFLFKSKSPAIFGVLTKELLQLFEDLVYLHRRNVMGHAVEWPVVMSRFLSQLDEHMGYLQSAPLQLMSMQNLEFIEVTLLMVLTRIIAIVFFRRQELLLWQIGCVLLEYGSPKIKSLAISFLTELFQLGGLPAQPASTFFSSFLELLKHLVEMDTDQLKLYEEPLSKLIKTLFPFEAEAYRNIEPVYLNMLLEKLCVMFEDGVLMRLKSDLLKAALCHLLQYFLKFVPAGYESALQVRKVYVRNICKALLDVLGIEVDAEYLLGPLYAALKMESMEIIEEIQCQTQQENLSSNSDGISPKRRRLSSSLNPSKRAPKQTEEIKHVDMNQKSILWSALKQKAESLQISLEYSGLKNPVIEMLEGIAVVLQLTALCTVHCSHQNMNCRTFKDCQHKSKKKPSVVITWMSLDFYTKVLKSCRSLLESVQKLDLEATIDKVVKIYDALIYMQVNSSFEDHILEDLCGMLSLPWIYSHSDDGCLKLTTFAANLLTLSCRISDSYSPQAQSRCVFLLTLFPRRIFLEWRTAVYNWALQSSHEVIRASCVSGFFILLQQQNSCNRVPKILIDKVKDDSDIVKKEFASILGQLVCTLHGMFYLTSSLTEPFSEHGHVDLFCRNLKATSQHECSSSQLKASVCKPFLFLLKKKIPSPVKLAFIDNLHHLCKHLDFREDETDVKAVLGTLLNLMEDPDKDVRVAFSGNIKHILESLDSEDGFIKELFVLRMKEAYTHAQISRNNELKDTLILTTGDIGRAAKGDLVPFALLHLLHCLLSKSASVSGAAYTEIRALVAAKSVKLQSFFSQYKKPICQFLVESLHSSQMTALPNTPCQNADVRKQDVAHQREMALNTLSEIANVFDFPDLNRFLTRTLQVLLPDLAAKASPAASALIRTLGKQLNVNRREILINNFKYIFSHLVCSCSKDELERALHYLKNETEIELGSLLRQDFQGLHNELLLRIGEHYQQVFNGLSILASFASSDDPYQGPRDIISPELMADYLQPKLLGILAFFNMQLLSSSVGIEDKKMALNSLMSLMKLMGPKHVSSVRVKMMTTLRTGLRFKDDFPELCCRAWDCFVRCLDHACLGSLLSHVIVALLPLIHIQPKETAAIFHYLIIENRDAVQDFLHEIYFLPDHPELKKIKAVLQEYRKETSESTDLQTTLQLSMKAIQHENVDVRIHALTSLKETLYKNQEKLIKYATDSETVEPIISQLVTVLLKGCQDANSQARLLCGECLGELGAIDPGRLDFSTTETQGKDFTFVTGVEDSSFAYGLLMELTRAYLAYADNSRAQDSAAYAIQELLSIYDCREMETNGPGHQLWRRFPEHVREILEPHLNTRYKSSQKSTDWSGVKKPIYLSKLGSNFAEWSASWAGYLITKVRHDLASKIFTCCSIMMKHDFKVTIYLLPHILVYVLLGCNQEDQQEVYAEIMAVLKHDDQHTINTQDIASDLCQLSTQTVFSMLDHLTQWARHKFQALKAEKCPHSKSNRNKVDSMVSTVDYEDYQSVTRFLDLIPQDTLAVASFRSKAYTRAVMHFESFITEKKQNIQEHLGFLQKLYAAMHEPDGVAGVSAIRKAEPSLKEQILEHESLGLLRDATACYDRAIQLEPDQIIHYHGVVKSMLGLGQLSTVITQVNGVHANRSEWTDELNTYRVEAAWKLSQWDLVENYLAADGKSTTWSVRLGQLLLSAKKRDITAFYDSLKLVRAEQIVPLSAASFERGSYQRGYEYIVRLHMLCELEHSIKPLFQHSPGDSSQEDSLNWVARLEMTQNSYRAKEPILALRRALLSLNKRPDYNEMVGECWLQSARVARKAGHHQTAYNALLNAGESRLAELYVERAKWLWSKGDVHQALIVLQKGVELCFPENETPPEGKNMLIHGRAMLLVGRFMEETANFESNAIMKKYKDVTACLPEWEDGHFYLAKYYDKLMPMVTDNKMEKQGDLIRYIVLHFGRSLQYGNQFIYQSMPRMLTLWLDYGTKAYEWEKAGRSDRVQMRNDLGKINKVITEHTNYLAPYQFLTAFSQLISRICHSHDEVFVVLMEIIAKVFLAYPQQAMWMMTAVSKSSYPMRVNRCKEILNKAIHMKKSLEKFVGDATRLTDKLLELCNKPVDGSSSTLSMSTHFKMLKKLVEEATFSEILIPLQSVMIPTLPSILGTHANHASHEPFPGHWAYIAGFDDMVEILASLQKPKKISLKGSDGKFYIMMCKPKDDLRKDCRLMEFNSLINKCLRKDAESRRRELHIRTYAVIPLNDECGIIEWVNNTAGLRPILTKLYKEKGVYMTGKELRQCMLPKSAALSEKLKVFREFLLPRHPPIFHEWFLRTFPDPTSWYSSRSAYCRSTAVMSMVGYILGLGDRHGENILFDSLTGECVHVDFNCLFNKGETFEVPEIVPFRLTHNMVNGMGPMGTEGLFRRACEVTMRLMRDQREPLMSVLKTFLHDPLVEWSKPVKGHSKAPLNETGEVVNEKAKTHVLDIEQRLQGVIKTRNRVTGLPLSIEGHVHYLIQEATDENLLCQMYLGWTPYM
T1 sequence (Q8WXE1 whole entry partner): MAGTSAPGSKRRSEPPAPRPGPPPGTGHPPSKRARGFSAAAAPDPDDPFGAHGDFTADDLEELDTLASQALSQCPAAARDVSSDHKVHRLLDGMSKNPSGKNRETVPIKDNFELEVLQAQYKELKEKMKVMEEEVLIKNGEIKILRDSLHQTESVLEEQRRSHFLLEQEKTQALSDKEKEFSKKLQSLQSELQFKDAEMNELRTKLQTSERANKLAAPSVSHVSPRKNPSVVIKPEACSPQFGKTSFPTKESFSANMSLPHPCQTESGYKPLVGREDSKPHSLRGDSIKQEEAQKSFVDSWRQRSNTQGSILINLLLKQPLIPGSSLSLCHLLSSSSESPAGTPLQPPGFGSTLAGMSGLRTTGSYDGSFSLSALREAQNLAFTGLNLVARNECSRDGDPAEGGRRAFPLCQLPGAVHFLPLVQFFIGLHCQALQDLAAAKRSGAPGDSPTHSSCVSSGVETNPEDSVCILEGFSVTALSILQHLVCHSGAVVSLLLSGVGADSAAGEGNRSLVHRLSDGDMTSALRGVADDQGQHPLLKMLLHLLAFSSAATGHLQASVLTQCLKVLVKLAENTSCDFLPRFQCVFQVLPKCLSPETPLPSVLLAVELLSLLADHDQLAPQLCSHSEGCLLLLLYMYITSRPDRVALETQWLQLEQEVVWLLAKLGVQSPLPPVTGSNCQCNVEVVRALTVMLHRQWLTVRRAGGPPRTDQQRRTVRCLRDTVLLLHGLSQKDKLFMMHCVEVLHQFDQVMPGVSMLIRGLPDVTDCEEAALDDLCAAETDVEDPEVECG
PARP1, sequence (P09874 whole entry): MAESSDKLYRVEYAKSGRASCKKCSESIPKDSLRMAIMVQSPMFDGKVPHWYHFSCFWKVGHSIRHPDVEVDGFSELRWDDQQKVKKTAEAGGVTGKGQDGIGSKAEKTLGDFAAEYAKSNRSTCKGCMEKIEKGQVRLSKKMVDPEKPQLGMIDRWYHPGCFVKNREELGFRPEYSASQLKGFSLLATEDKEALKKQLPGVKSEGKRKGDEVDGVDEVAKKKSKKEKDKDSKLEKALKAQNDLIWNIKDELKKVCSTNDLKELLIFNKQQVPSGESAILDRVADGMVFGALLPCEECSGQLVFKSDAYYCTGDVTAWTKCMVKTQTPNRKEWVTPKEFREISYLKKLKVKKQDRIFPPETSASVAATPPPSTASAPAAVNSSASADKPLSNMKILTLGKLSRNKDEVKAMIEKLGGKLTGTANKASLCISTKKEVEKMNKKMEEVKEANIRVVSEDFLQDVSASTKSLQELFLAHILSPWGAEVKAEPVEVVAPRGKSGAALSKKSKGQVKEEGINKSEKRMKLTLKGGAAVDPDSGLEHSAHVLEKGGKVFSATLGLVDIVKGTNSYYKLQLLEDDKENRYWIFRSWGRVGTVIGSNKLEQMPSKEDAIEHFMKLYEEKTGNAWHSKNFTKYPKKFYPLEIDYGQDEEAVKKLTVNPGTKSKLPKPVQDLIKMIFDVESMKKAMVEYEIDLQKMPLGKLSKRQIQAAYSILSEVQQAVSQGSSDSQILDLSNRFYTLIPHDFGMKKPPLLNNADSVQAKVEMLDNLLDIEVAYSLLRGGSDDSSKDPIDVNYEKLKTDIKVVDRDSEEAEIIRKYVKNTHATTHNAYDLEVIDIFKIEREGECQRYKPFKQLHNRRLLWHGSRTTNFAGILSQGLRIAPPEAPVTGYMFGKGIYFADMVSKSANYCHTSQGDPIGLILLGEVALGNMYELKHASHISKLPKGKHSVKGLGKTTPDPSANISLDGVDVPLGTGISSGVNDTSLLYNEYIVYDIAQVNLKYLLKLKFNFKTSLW

As a reminder, the IC50 is the concentration that inhibits the measured activity by half. `C[C@@H]1COCCN1c1cc(C2(NC(=O)CNC(=O)c3cc(Cc4n[nH]c(=O)c5ccccc45)ccc3F)CC2)nc(-c2ccnc3[nH]ccc23)n1` [Compound A2, (R)‐2‐fluoro‐N‐(2‐((1‐(6‐(3‐methylmorpholino)‐2‐(1H‐pyrrolo [2,3‐b]pyridin‐4‐yl)pyrimidin‐4‐yl)cyclopropyl)amino)‐2‐oxoethyl)‐5‐((4‐oxo‐3,4‐dihydrophthalazin‐1‐yl)methyl)benzamide]: the half-inhibitory concentration (IC50) was 12 ± 2.8 nM in assay [1], 118 ± 14 nM in assay [2], > 50000 nM in assay [3] and 28400 ± 1650 nM in assay [4].

Take `C[C@@H]1COCCN1c1cc(C2(NC(=O)CCNC(=O)c3cc(Cc4n[nH]c(=O)c5ccccc45)ccc3F)CC2)nc(-c2ccnc3[nH]ccc23)n1` [Compound A3, (R)‐2‐fluoro‐N‐(3‐((1‐(6‐(3‐methylmorpholino)‐2‐(1H‐pyrrolo [2,3‐b]pyridin‐4‐yl)pyrimidin‐4‐yl)cyclopropyl)amino)‐3‐oxopropyl)‐5‐((4‐oxo‐3,4‐dihydrophthalazin‐1‐yl)methyl)benzamide]: the inhibition at 0.02 µM in assay [1] (@ 20 nM, read-out: PARP1 inhibitory rate at certain concentration) came out at 31.8 ± 2.4%. In addition, the IC50 in assay [2] was > 500 nM; in assay [3] it was 27300 ± 2340 nM; in assay [4], > 50000 nM.

For the molecule `C[C@@H]1COCCN1c1cc(C2(NC(=O)CCCNC(=O)c3cc(Cc4n[nH]c(=O)c5ccccc45)ccc3F)CC2)nc(-c2ccnc3[nH]ccc23)n1` [Compound A4, (R)‐2‐fluoro‐N‐(4‐((1‐(6‐(3‐methylmorpholino)‐2‐(1H‐pyrrolo[2,3‐b]pyridin‐4‐yl)pyrimidin‐4‐yl)cyclopropyl)amino)‐4‐oxobutyl)‐5‐((4‐oxo‐3,4‐dihydrophthalazin‐1‐yl)methyl)benzamide], the IC50 in assay [1] is 3.4 nM; in assay [2] it was > 500 nM; in assay [3], 3080 ± 80 nM; in assay [4] it was > 50000 nM.

For `C[C@@H]1COCCN1c1cc(C2(NS(=O)(=O)c3ccc(C(=O)N4CCN(C(=O)c5cc(Cc6n[nH]c(=O)c7ccccc67)ccc5F)CC4)cc3)CC2)nc(-c2ccnc3[nH]ccc23)n1` [Compound A8, (R)‐4‐(4‐(2‐fluoro‐5‐((4‐oxo‐3,4‐dihydrophthalazin‐1‐yl)methyl)benzoyl)piperazine‐1‐carbonyl)‐N‐(1‐(6‐(3‐methylmorpholino)‐2‐(1H‐pyrrolo[2,3‐b]pyridin‐4‐yl)pyrimidin‐4‐yl)cyclopropyl)benzenesulfonamide], the IC50 in assay [1] was 0.75 ± 0.27 nM; in assay [2], 1320 ± 189 nM; in assay [3], 620 ± 60 nM; in assay [4] it was > 50000 nM.

With `C[C@@H]1COCCN1c1cc(C2(NC(=O)c3ccc(C(=O)N4CCN(C(=O)c5cc(Cc6n[nH]c(=O)c7ccccc67)ccc5F)CC4)nc3)CC2)nc(-c2ccnc3[nH]ccc23)n1` [Compound A9, (R)‐6‐(4‐(2‐fluoro‐5‐((4‐oxo‐3,4‐dihydrophthalazin‐1‐yl)methyl)benzoyl)piperazine‐1‐carbonyl)‐N‐(1‐(6‐(3‐methylmorpholino)‐2‐(1H‐pyrrolo[2,3‐b]pyridin‐4‐yl)pyrimidin‐4‐yl)cyclopropyl)nicotinamide], the IC50 is 0.6 ± 0.06 nM in assay [1], 32 ± 9.3 nM in assay [2], 750 ± 160 nM in assay [3] and > 50000 nM in assay [4].

As for `C[C@@H]1COCCN1c1cc(C2(NC(=O)c3ccc(CN4CCN(C(=O)c5cc(Cc6n[nH]c(=O)c7ccccc67)ccc5F)CC4)cc3)CC2)nc(-c2ccnc3[nH]ccc23)n1` [Compound A10, (R)‐4‐((4‐(2‐fluoro‐5‐((4‐oxo‐3,4‐dihydrophthalazin‐1‐yl)methyl)benzoyl)piperazin‐1‐yl)methyl)‐N‐(1‐(6‐(3‐methylmorpholino)‐2‐(1H‐pyrrolo[2,3‐b]pyridin‐4‐yl)pyrimidin‐4‐yl)cyclopropyl)benzamide], the IC50 in assay [1] was 19.3 ± 2.9 nM; in assay [2] it was 185 ± 16.3 nM; in assay [3] it was > 50000 nM; in assay [4], > 50000 nM.

As for `C[C@@H]1COCCN1c1cc(C2(NC(=O)c3ccc(N4CCN(C(=O)c5cc(Cc6n[nH]c(=O)c7ccccc67)ccc5F)CC4)cc3)CC2)nc(-c2ccnc3[nH]ccc23)n1` [Compound A11, (R)‐4‐(4‐(2‐fluoro‐5‐((4‐oxo‐3,4‐dihydrophthalazin‐1‐yl)methyl)benzoyl)piperazin‐1‐yl)‐N‐(1‐(6‐(3‐methylmorpholino)‐2‐(1H‐pyrrolo[2,3‐b]pyridin‐4‐yl)pyrimidin‐4‐yl)cyclopropyl)benzamide], the IC50 is 2.3 ± 0.5 nM in assay [1], 292 ± 13.9 nM in assay [2], 570 ± 20 nM in assay [3] and > 50000 nM in assay [4].

Consider `C[C@@H]1COCCN1c1cc(C2(NC(=O)c3cnc(N4CCN(C(=O)c5cc(Cc6n[nH]c(=O)c7ccccc67)ccc5F)CC4)nc3)CC2)nc(-c2ccnc3[nH]ccc23)n1` [Compound A12, (R)‐2‐(4‐(2‐fluoro‐5‐((4‐oxo‐3,4‐dihydrophthalazin‐1‐yl)methyl)benzoyl)piperazin‐1‐yl)‐N‐(1‐(6‐(3‐methylmorpholino)‐2‐(1H‐pyrrolo[2,3‐b]pyridin‐4‐yl)pyrimidin‐4‐yl)cyclopropyl)pyrimidine‐5‐carboxamide], for which the IC50 is 1.7 ± 0.2 nM in assay [1], 105 ± 7.2 nM in assay [2], 240 ± 10 nM in assay [3] and > 50000 nM in assay [4].

Turning to `C[C@@H]1COCCN1c1cc(CNS(=O)(=O)c2ccc(C(=O)N3CCN(C(=O)c4cc(Cc5n[nH]c(=O)c6ccccc56)ccc4F)CC3)cc2)nc(-c2ccnc3[nH]ccc23)n1` [Compound B9, (R)‐4‐(4‐(2‐fluoro‐5‐((4‐oxo‐3,4‐dihydrophthalazin‐1‐yl)methyl)benzoyl)piperazine‐1‐carbonyl)‐N‐((6‐(3‐methylmorpholino)‐2‐(1H‐pyrrolo[2,3‐b]pyridin‐4‐yl)pyrimidin‐4‐yl)methyl) benzenesulfonamide], the IC50 in assay [1] is 0.64 ± 0.21 nM; in assay [2], 205 ± 13.1 nM; in assay [3], 6880 ± 630 nM; in assay [4] it was > 50000 nM.

Consider `C[C@@H]1COCCN1c1cc(CNC(=O)c2ccc(C(=O)N3CCN(C(=O)c4cc(Cc5n[nH]c(=O)c6ccccc56)ccc4F)CC3)nc2)nc(-c2ccnc3[nH]ccc23)n1` [Compound B10, (R)‐6‐(4‐(2‐fluoro‐5‐((4‐oxo‐3,4‐dihydrophthalazin‐1‐yl)methyl)benzoyl)piperazine‐1‐carbonyl)‐N‐((6‐(3‐methylmorpholino)‐2‐(1H‐pyrrolo[2,3‐b]pyridin‐4‐yl)pyrimidin‐4‐yl)methyl) nicotinamide], for which the IC50 in assay [1] was 0.61 ± 0.15 nM; in assay [2], 19 ± 1.2 nM; in assay [3] it was 1700 ± 350 nM; in assay [4] it was > 50000 nM.

With `C[C@@H]1COCCN1c1cc(CNC(=O)c2ccc(C(=O)N3CCN(C(=O)c4cc(Cc5n[nH]c(=O)c6ccccc56)ccc4F)CC3)cn2)nc(-c2ccnc3[nH]ccc23)n1` [Compound B11, (R)‐5‐(4‐(2‐fluoro‐5‐((4‐oxo‐3,4‐dihydrophthalazin‐1‐yl)methyl)benzoyl)piperazine‐1‐carbonyl)‐N‐((6‐(3‐methylmorpholino)‐2‐(1H‐pyrrolo[2,3‐b]pyridin‐4‐yl)pyrimidin‐4‐yl)methyl) picolinamide], the IC50 in assay [1] is 1 ± 0.13 nM; in assay [2], 31.1 ± 4.7 nM; in assay [3], 480 ± 30 nM; in assay [4], > 50000 nM.
